Assay results: US8440612B2, “Controlling giardiosis” (Bayer Intellectual Property GmbH, priority 2008, dated 2013)
Values joined by “and” are separate entries in the source; they are usually repeats but may differ in a detail not shown here. Equal values may be shown once.

System: Giardia duodenalis
Assay: Giardia cyst excretion in infected Beagle puppies, oral dose on three successive days (Biological Example 2)
Format: in vivo
Procedure: Method: The quantitative determination of the cyst excretion was performed using a modified version of Hewlett (18): 4 g faeces were dissolved in 100 ml of water, sieved and allowed to sediment. The sediment was applied to a 1 M sucrose gradient (specific gravity 1.13), and the cysts, which were concentrated at the sucrose/water boundary layer after the centrifugation were pipetted off. After a wash step followed by centrifugation, the cysts in the pellet were counted. To this end, an aliquot of the pellet was counted under the microscope, and the number of cysts per g faeces was calculated.
Beagle puppies aged 11-15 weeks which had at least 2 weeks to settle in the animal centre before being infected were infected orally with 50 000 Giardia duodenalis cysts before the beginning of the study. The cysts for the infection were obtained with the aid of a sucrose gradient from the faeces of dogs which excreted Giardia cysts and stored at 4 degrees centigrade in Bacto-Casitone medium for no longer than 2 weeks. 18 puppies which excreted Giardia cysts were included in the study and kept in individual cages in order to collect the daily total faeces. The quantitative determination of the cyst excretion was performed as an […], with the modification that the aliquot of the pellet was counted under the microscope with the aid of a Fuchs-Rosenthal hematocytometer. The quantitative determination of the cyst excretion was performed for 4 days before the treatment (day −3 to 0), and the puppies were divided randomly into three groups, taking into consideration the cyst excretion. […] The 6 dogs of the control group remained untreated. The quantitative determination of the cyst excretion was continued from day 1 to day 8 after the treatment.

COC(=O)Nc1nc2ccc(Sc3ccccc3)cc2[nH]1 [fenbendazole]
Activity (calculated activity on cyst excretion versus infected untreated control, day 3 to 8, 50 mg/kg oral on days 0, 1 and 2, 50 mg/kg): 48.3%
Σ Giardia cyst excretion D0 (group line Σ (6 dogs), D0, day of treatment, 50 mg/kg oral on days D0, D1 and D2): 20274 cysts per g faeces
Σ Giardia cyst excretion D1 (group line Σ (6 dogs), D1, day of treatment, 50 mg/kg oral on days D0, D1 and D2): 17010 cysts per g faeces
Σ Giardia cyst excretion D2 (group line Σ (6 dogs), D2, day of treatment, 50 mg/kg oral on days D0, D1 and D2): 1735 cysts per g faeces
Σ Giardia cyst excretion D3 (group line Σ (6 dogs), D3, after the treatment, 50 mg/kg oral on days D0, D1 and D2): 13929 cysts per g faeces
Σ Giardia cyst excretion D4 (group line Σ (6 dogs), D4, after the treatment, 50 mg/kg oral on days D0, D1 and D2): 12781 cysts per g faeces
Σ Giardia cyst excretion D5 (group line Σ (6 dogs), D5, after the treatment, 50 mg/kg oral on days D0, D1 and D2): 7555 cysts per g faeces
Σ Giardia cyst excretion D6 (group line Σ (6 dogs), D6, after the treatment, 50 mg/kg oral on days D0, D1 and D2): 5494 cysts per g faeces
Σ Giardia cyst excretion D7 (group line Σ (6 dogs), D7, after the treatment, 50 mg/kg oral on days D0, D1 and D2): 12913 cysts per g faeces
Σ Giardia cyst excretion D8 (group line Σ (6 dogs), D8, after the treatment, 50 mg/kg oral on days D0, D1 and D2): 4795 cysts per g faeces
Σ Giardia cyst excretion D−1 (group line Σ (6 dogs), day −1, before treatment, 50 mg/kg oral on days D0, D1 and D2): 58990 cysts per g faeces
Σ Giardia cyst excretion D−2 (group line Σ (6 dogs), day −2, before treatment, 50 mg/kg oral on days D0, D1 and D2): 22257 cysts per g faeces
Σ Giardia cyst excretion D−3 (group line Σ (6 dogs), day −3, before treatment, 50 mg/kg oral on days D0, D1 and D2): 29963 cysts per g faeces
Σ Giardia cyst excretion Day 3 to 8 (group, after treatment, 50 mg/kg oral on days 0, 1 and 2): 9578 cysts per g faeces
Σ Giardia cyst excretion Day: −3 to 0 (group, before treatment, 50 mg/kg oral on days 0, 1 and 2): 32871 cysts per g faeces
Giardia cyst excretion D0 (individual dogs, D0, day of treatment, 50 mg/kg oral on days D0, D1 and D2, 50 mg/kg): 49400 cysts per g faeces and 28559 cysts per g faeces and 639 cysts per g faeces and 2719 cysts per g faeces and 17037 cysts per g faeces and 23290 cysts per g faeces
Giardia cyst excretion D1 (individual dogs, D1, day of treatment, 50 mg/kg oral on days D0, D1 and D2, 50 mg/kg): 67200 cysts per g faeces and 14596 cysts per g faeces and 872 cysts per g faeces and 12488 cysts per g faeces and 6178 cysts per g faeces and 723 cysts per g faeces
Giardia cyst excretion D2 (individual dogs, D2, day of treatment, 50 mg/kg oral on days D0, D1 and D2, 50 mg/kg): 0 cysts per g faeces (2×) and 5980 cysts per g faeces and 3386 cysts per g faeces and 490 cysts per g faeces and 552 cysts per g faeces
Giardia cyst excretion D3 (individual dogs, D3, after the treatment, 50 mg/kg oral on days D0, D1 and D2, 50 mg/kg): 67109 cysts per g faeces and 7043 cysts per g faeces and 961 cysts per g faeces and 3075 cysts per g faeces and 0 cysts per g faeces and 5388 cysts per g faeces
Giardia cyst excretion D4 (individual dogs, D4, after the treatment, 50 mg/kg oral on days D0, D1 and D2, 50 mg/kg): 49423 cysts per g faeces and 652 cysts per g faeces and 439 cysts per g faeces and 12038 cysts per g faeces and 0 cysts per g faeces and 14133 cysts per g faeces
Giardia cyst excretion D5 (individual dogs, D5, after the treatment, 50 mg/kg oral on days D0, D1 and D2, 50 mg/kg): 3116 cysts per g faeces and 18725 cysts per g faeces and 4432 cysts per g faeces and 0 cysts per g faeces (2×) and 19057 cysts per g faeces
Giardia cyst excretion D6 (individual dogs, D6, after the treatment, 50 mg/kg oral on days D0, D1 and D2, 50 mg/kg): 4635 cysts per g faeces and 7546 cysts per g faeces and 5594 cysts per g faeces and 3691 cysts per g faeces and 0 cysts per g faeces and 11495 cysts per g faeces
Giardia cyst excretion D7 (individual dogs, D7, after the treatment, 50 mg/kg oral on days D0, D1 and D2, 50 mg/kg): 17474 cysts per g faeces and 20780 cysts per g faeces and 260 cysts per g faeces and 18056 cysts per g faeces and 251 cysts per g faeces and 20657 cysts per g faeces
Giardia cyst excretion D8 (individual dogs, D8, after the treatment, 50 mg/kg oral on days D0, D1 and D2, 50 mg/kg): 0 cysts per g faeces (2×) and 5555 cysts per g faeces and 5968 cysts per g faeces and 10875 cysts per g faeces and 6370 cysts per g faeces
Giardia cyst excretion D−1 (individual dogs, day −1, before treatment, 50 mg/kg oral on days D0, D1 and D2, 50 mg/kg): 243143 cysts per g faeces and 56014 cysts per g faeces and 2349 cysts per g faeces and 16328 cysts per g faeces and 14744 cysts per g faeces and 21360 cysts per g faeces
Giardia cyst excretion D−2 (individual dogs, day −2, before treatment, 50 mg/kg oral on days D0, D1 and D2, 50 mg/kg): 47754 cysts per g faeces and 23808 cysts per g faeces and 26526 cysts per g faeces and 18113 cysts per g faeces and 7230 cysts per g faeces and 10109 cysts per g faeces
